# Assay results reported in US20240245051A1, “DISINFECTING, ANTIMICROBIAL AND PRESERVATIVE COMPOSITION” (BJBIOCHEM CO., LTD., priority 2021, published 2024).
# Key:
# Test in all cases: Antimicrobial test, broth dilution method (MIC)
# Type in all cases: cell-based
# Details in all cases: single compounds of Comparative Examples
# E. coli = system: E. coli
# Protocol: (§1) The antimicrobial activity of the test solution was measured using a broth dilution method. The concentration of the test solution that was treated was diluted from the highest concentration of 5% to the lowest concentration of 0.0001%. The test solution was cultured in the presence of the strain and then the turbidity of the tube was determined. […] After the primary test described as above, the concentration of the test solution that was treated was further subdivided and a secondary test was conducted to obtain an accurate minimum inhibitory concentration (MIC).
# (§2) Test strains E. coli, S. aureus, and P. aeruginosa were inoculated into tryptic soy broth and incubated at 35±2° C. for 16 to 24 hours. C. albicans was inoculated into Sabouraud dextrose broth and cultured at 35° C. for 24 hours. A. niger was seeded on potato dextrose agar and cultured at (25±1°) C for 7 days, sterile physiological saline was dispensed into a solid medium on which the bacteria grew, and spores were removed using a spreader and then diluted in sterile physiological saline.
# (§3) A liquid medium was put into the tube and the concentration of the test solution that was treated was diluted from the highest concentration of 5% to the lowest concentration of 0.0001%. The liquid media used for E. coli, S. aureus, and P. aeruginosa (bacteria) were tryptic soy broth, and the liquid media used for C. albicans, and A. niger (fungi) were Sabouraud dextrose broth.
# (§4) E. coli, S. aureus, and P. aeruginosa of the strains were inoculated at a concentration of 1×10^5 CFU/mL in the test tube. The tubes treated with the test solution were incubated at 35±2° C. for 16 to 24 hours. C. albicans and A. niger were inoculated at a concentration of 1×10^4 CFU/mL in the test tube. After treatment with the test solution was completed, C. albicans was cultured at 35° C. for 24 to 48 hours and A. niger was cultured at 25° C. for 46 to 50 hours. A medium tube, to which the bacterial solution was not added, was used as a negative control, and a tube containing the medium inoculated with only the bacterial solution without the test solution was used as a growth control. In addition, in order to determine the antimicrobial activity of dipropylene glycol itself used as a solvent, the MIC of the test bacteria for the solvent was measured under the same conditions as in the sample.
# C. albicans = system: C. albicans
# Protocol: as §1, §2, §3, §4
# S. aureus = system: S. aureus
# Protocol: as §1, §2, §3, §4
# A. niger = system: A. niger
# Protocol: as §1, §2, §3, §4
# P. aeruginosa = system: P. aeruginosa
# Protocol: as §1, §2, §3, §4
"minimum inhibitory concentration (MIC), E. coli (E. coli) [%]","minimum inhibitory concentration (MIC), C. albicans (C. albicans) [%]","minimum inhibitory concentration (MIC), S. Aureus (S. aureus) [%]","minimum inhibitory concentration (MIC), A. niger (A. niger) [%]","minimum inhibitory concentration (MIC), P. Aeruginosa (P. aeruginosa) [%]",Molecule
0.02,0.1,0.02,0.15,0.1,"CC(=O)CCC(=O)O [Comparative Example 20, Levulinic acid]"
0.01,0.01,0.01,0.09,0.03,"CCCCCCCCCCCCNCC(O)CO (centres unmarked) [Comparative Example 1, (3-dodecylamino)propane-1,2-diol]"
0.06,0.03,0.06,0.02,0.12,"CCCCCCCC(=O)NO [Comparative Example 17, Caprylhydroxamic acid]"
0.2,0.64,0.5,0.32,0.5,"CCCCCCOCC(O)CO (centres unmarked) [Comparative Example 5, Hexyl glycerin]"
0.05,0.1,0.01,0.1,0.05,"COc1ccc(C(=O)O)cc1 [Comparative Example 22, Sodium anisate]"
0.09,0.011,0.025,0.006,0.045,"CCCCCCCCC(O)CO (centres unmarked) [Comparative Example 4, Decane-1,2-diol]"
0.15,0.1,0.2,0.5,0.1,"CC(=O)c1ccc(O)cc1 [Comparative Example 13, 4-hydroxy acetophenone]"
0.02,0.005,0.02,0.005,0.4,"COc1ccccc1/C=C/C=O [Comparative Example 10, 2-methoxycinnamaldehyde]"
0.4,0.03,0.4,0.03,0.2,"OCCCc1ccccc1 [Comparative Example 12, 3-phenyl-1-propanol]"
0.05,0.2,0.05,0.3,0.2,"Cc1cc(CC(C)CC(C)(C)C)n(O)c(=O)c1 (centres unmarked) [Comparative Example 18, Piroctone olamine]"
0.25,0.5,0.5,0.3,0.5,"CCCCCCC(O)CO (centres unmarked) [Comparative Example 3, Octane-1,2-diol]"
0.5,1,0.1,0.5,0.1,"CC(=O)CCc1ccc(O)cc1 [Comparative Example 11, Raspberry ketone]"

# The next lines start with the molecule.
Molecule,"minimum inhibitory concentration (MIC), E. coli (E. coli) [%]","minimum inhibitory concentration (MIC), C. albicans (C. albicans) [%]","minimum inhibitory concentration (MIC), S. Aureus (S. aureus) [%]","minimum inhibitory concentration (MIC), A. niger (A. niger) [%]","minimum inhibitory concentration (MIC), P. Aeruginosa (P. aeruginosa) [%]"
"O=C/C=C/c1ccccc1 [Comparative Example 9, Cinnamaldehyde]",0.05,0.02,0.03,0.03,0.1
"O=C([O-])CN(CCN(CC(=O)[O-])CC(=O)[O-])CC(=O)[O-].[Na+].[Na+].[Na+].[Na+] [Comparative Example 24, Tetrasodium EDTA]",0.1,0.05,0.1,0.15,0.15
"CCCCC(O)CO (centres unmarked) [Comparative Example 2, Hexane-1,2-diol]",1,2,2,0.5,1
Citric acid [Comparative Example 21],0.1,0.05,0.1,0.2,0.1
"O=C([O-])c1ccccc1.[Na+] [Comparative Example 14, Sodium benzoate]",0.016,0.12,0.002,0.1,0.016
"CCCCCCCCOCC(O)CO (centres unmarked) [Comparative Example 6, Octyl glycerin]",0.5,0.25,0.5,0.5,0.5
Disodium EDTA [Comparative Example 23],0.1,0.05,0.1,0.15,0.15
"OCCOc1ccccc1 [Comparative Example 15, Phenoxy EtOH]",0.06,0.12,0.06,0.12,0.09
"CCCCCCCCCCCC(=O)NC(CCCN=C(N)N)C(=O)OCC (centres unmarked) [Comparative Example 19, Lauroyl arginine ethyl ester]",0.003,0.001,0.003,0.003,0.003
"CCCCC(CC)COCC(O)CO (centres unmarked) [Comparative Example 7, Ethylhexylglycerin]",0.3,0.5,0.15,0.5,2
